≈ marks a conversion by molar mass, not a printed value. Calls of active or inactive are those of the source. No cut-off for these calls is given here. Positions of bridges follow the written chain, without caps; N, C: chain ends. Non-standard residues stand in square brackets, D forms with d. Residues, ends and D or L forms follow the SMILES beside them.
Legend:
Type in all cases: functional
Escherichia coli [1] = assay: Antibiofilm activity against pre-established 36 hrs old bacterial biofilms of Escherichia coli MG1655 incubated for 4 hrs by XTT assay
Escherichia coli [2] = assay: Antibiofilm activity against pre-established 36 hrs old bacterial biofilms of Escherichia coli MG1655 incubated for 4 hrs Antibiofilm activity against pre-established 36 hrs old bacterial biofilms of Escherichia coli MG1655 incubated for 4 hrs by LIVE/DEAD BacLight staining based confocal microscopy
Staphylococcus aureus [3] = assay: Antibiofilm activity against pre-established 36 hrs old bacterial biofilms of Staphylococcus aureus NCTC 8530 incubated for 4 hrs by […] LIVE/DEAD BacLight staining based confocal microscopy
Staphylococcus aureus [4] = assay: Antibiofilm activity against pre-established 36 hrs old bacterial biofilms of Staphylococcus aureus NCTC 8530 incubated for 4 hrs by XTT assay
Staphylococcus aureus [5] = assay: Bactericidal activity against Staphylococcus aureus NCTC 8530 planktonic forms
Escherichia coli [6] = assay: Bactericidal activity against Escherichia coli MG1655 planktonic forms
Staphylococcus aureus [7] = assay: Antibiofilm activity against pre-established 36 hrs old bacterial biofilms of Staphylococcus aureus NCTC 8530 assessed as reduction in number of viable bacterial cells incubated for 4 hrs by XTT assay

**Q.** Which MBEC (Escherichia coli [1]) does the source give for CC[C@@H](C)[C@H]1NC(=O)[C@H]2CCCN2C(=O)[C@H](NC(=O)[C@@H](C)N)CSSC[C@H](C(=O)O)NC(=O)[C@@H]([C@H](C)CC)NC(=O)[C@@H](CCCNC(=N)N)NC(=O)[C@@H](CCCNC(=N)N)NC(=O)CNC(=O)[C@@H]([C@H](C)CC)NC(=O)[C@@H](CCCNC(=N)N)NC(=O)[C@@H](CCCCN)NC(=O)[C@@H](C)NC(=O)[C@@H](CCCCN)NC(=O)CNC(=O)[C@@H](CCCNC(=N)N)NC(=O)[C@@H](Cc2ccc(O)cc2)NC(=O)[C@@H]([C@H](C)O)NC(=O)CNC(=O)[C@@H](CCC(N)=O)NC(=O)[C@@H]([C@H](C)CC)NC(=O)[C@@H](CCCCN)NC(=O)[C@@H]([C@H](C)O)NC(=O)[C@@H](Cc2ccccc2)NC1=O here?
**A.** 200 µM

**Q.** And the Activity (Escherichia coli [2])?
**A.** Active

**Q.** And the Activity (Staphylococcus aureus [3])?
**A.** Active

**Q.** What about the MBEC (Staphylococcus aureus [4]) of the same compound?
**A.** 200 µM

**Q.** What about the MBC (Staphylococcus aureus [5]) of the same compound?
**A.** 2 µM (≈ 5.47 µg/mL)

**Q.** And the MBC (Escherichia coli [6])?
**A.** 1 µM (≈ 2.74 µg/mL)

**Q.** Which results are given for CC[C@H](C)[C@@H]1NC(=O)[C@H](CCCCN)NC(=O)[C@H]([C@@H](C)O)NC(=O)[C@H](Cc2ccccc2)NC(=O)[C@H]([C@@H](C)CC)NC(=O)[C@@H]2CCCN2C(=O)[C@@H](NC(=O)[C@H](C)N)CSSC[C@@H](C(=O)O)NC(=O)[C@H]([C@@H](C)CC)NC(=O)[C@@H](CCCNC(=N)N)NC(=O)[C@H](CCCNC(=N)N)NC(=O)CNC(=O)[C@@H]([C@@H](C)CC)NC(=O)[C@H](CCCNC(=N)N)NC(=O)[C@H](CCCCN)NC(=O)[C@H](C)NC(=O)[C@H](CCCCN)NC(=O)CNC(=O)[C@H](CCCNC(=N)N)NC(=O)[C@H](Cc2ccc(O)cc2)NC(=O)[C@H]([C@@H](C)O)NC(=O)CNC(=O)[C@H](CCC(N)=O)NC1=O?
**A.** Activity (Escherichia coli [2]): Active; Activity (Staphylococcus aureus [3]): Active; MBEC (Staphylococcus aureus [4]): 150 µM; MBC (Staphylococcus aureus [5]): 2 µM (≈ 5.47 µg/mL); MBC (Escherichia coli [6]): 1 µM (≈ 2.74 µg/mL)

**Q.** What does the source list for CC[C@H](C)[C@@H]1NC(=O)[C@H](CCCCN)NC(=O)[C@H]([C@@H](C)O)NC(=O)[C@H](Cc2ccccc2)NC(=O)[C@H]([C@@H](C)CC)NC(=O)[C@@H]2CCCN2C(=O)[C@@H](NC(=O)[C@H](C)N)CSSC[C@@H](C(=O)N[C@@H](CCCNC(=N)N)C(=O)O)NC(=O)[C@H](CCCCN)NC(=O)[C@H](C)NC(=O)[C@H](CCCNC(=N)N)NC(=O)CNC(=O)[C@H](CCCNC(=N)N)NC(=O)[C@H](Cc2ccc(O)cc2)NC(=O)[C@H]([C@@H](C)O)NC(=O)CNC(=O)[C@H](CCC(N)=O)NC1=O (H-ACPIFTKIQGTYRGRAKCR-OH; disulfide 2-18)?
**A.** MBEC (Staphylococcus aureus [7]): Active; MBC (Staphylococcus aureus [5]): 5 µM (≈ 10.8 µg/mL); MBC (Escherichia coli [6]): 5 µM (≈ 10.8 µg/mL)

**Q.** What does the source list for CC[C@@H](C)[C@H]1NC(=O)[C@H](CCCCN)NC(=O)[C@H]([C@@H](C)O)NC(=O)[C@H](Cc2ccccc2)NC(=O)[C@@H]([C@H](C)CC)NC(=O)[C@@H]2CCCN2C(=O)[C@@H](NC(=O)[C@H](C)N)CSSC[C@@H](C(=O)N[C@@H](CCCNC(=N)N)C(=O)O)NC(=O)[C@H](CCCCN)NC(=O)[C@H](C)NC(=O)[C@@H](CCCNC(=N)N)NC(=O)CNC(=O)[C@@H](CCCNC(=N)N)NC(=O)[C@H](Cc2ccc(O)cc2)NC(=O)[C@H]([C@@H](C)O)NC(=O)CNC(=O)[C@H](CCC(N)=O)NC1=O (H-ACP[dI]FTK[dI]QGTY[dR]G[dR]AKCR-OH; disulfide 2-18)?
**A.** MBEC (Staphylococcus aureus [7]): Active; MBEC (Staphylococcus aureus [4]): inactive; MBC (Staphylococcus aureus [5]): 5 µM (≈ 10.8 µg/mL); MBC (Escherichia coli [6]): 5 µM (≈ 10.8 µg/mL)

From ChEMBL document CHEMBL4052697, “Chimeric analogs of human β-defensin 1 and θ-defensin disrupt pre-established bacterial biofilms” (2017)
